Laboratory results from PubChem BioAssay (NCI).
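Each compound was tested at five concentrations against cells in 96-well plates for 48 hours. GI50: concentration for 50% inhibition of growth. TGI: total growth inhibition.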

Columns and labels:
Experiment in all cases: NCI tumour cell line growth inhibition, 48 h
786-0 renal = tested on: 786-0 renal
A498 renal = tested on: A498 renal
A549 NSCLC = tested on: A549 NSCLC
ACHN renal = tested on: ACHN renal
BT-549 breast = tested on: BT-549 breast
CAKI-1 renal = tested on: CAKI-1 renal
CCRF-CEM leukemia = tested on: CCRF-CEM leukemia
COLO 205 colon = tested on: COLO 205 colon
DU-145 prostate = tested on: DU-145 prostate
EKVX NSCLC = tested on: EKVX NSCLC
HCC-2998 colon = tested on: HCC-2998 colon
HCT-116 colon = tested on: HCT-116 colon
HCT-15 colon = tested on: HCT-15 colon
HL-60(TB) leukemia = tested on: HL-60(TB) leukemia
HOP-62 NSCLC = tested on: HOP-62 NSCLC
HOP-92 NSCLC = tested on: HOP-92 NSCLC
HS 578T breast = tested on: HS 578T breast
HT29 colon = tested on: HT29 colon
IGROV1 ovarian = tested on: IGROV1 ovarian
K-562 leukemia = tested on: K-562 leukemia
KM12 colon = tested on: KM12 colon
LOX IMVI melanoma = tested on: LOX IMVI melanoma
M14 melanoma = tested on: M14 melanoma
MALME-3M melanoma = tested on: MALME-3M melanoma
MCF7 breast = tested on: MCF7 breast
MDA-MB-231 breast = tested on: MDA-MB-231 breast
MDA-MB-435 = tested on: MDA-MB-435
MDA-MB-468 breast = tested on: MDA-MB-468 breast
MOLT-4 leukemia = tested on: MOLT-4 leukemia
NCI-H226 lung = tested on: NCI-H226 lung
NCI-H23 lung = tested on: NCI-H23 lung
NCI-H460 lung = tested on: NCI-H460 lung
NCI-H522 lung = tested on: NCI-H522 lung
NCI/ADR-RES ovarian = tested on: NCI/ADR-RES ovarian
OVCAR-3 ovarian = tested on: OVCAR-3 ovarian
OVCAR-4 ovarian = tested on: OVCAR-4 ovarian
OVCAR-5 ovarian = tested on: OVCAR-5 ovarian
OVCAR-8 ovarian = tested on: OVCAR-8 ovarian
PC-3 prostate = tested on: PC-3 prostate
RPMI-8226 leukemia = tested on: RPMI-8226 leukemia
RXF 393 renal = tested on: RXF 393 renal
SF-268 CNS = tested on: SF-268 CNS
SF-295 CNS = tested on: SF-295 CNS
SF-539 CNS = tested on: SF-539 CNS
SK-MEL-2 melanoma = tested on: SK-MEL-2 melanoma
SK-MEL-28 melanoma = tested on: SK-MEL-28 melanoma
SK-MEL-5 melanoma = tested on: SK-MEL-5 melanoma
SK-OV-3 ovarian = tested on: SK-OV-3 ovarian
SN12C renal = tested on: SN12C renal
SNB-19 CNS = tested on: SNB-19 CNS
SNB-75 CNS = tested on: SNB-75 CNS
SR leukemia = tested on: SR leukemia
SW-620 colon = tested on: SW-620 colon
T-47D breast = tested on: T-47D breast
TK-10 renal = tested on: TK-10 renal
U251 CNS = tested on: U251 CNS
UACC-257 melanoma = tested on: UACC-257 melanoma
UACC-62 melanoma = tested on: UACC-62 melanoma
UO-31 renal = tested on: UO-31 renal

**Q.** Which results are given for `COc1ccc(C(=O)/C=C/c2cc(C(F)(F)F)cc(C(F)(F)F)c2)cc1S(N)(=O)=O`?
**A.** GI50 (786-0 renal): 1640 nM; TGI (786-0 renal): 3.32 µM; GI50 (A498 renal): 16.9 µM; TGI (A498 renal): 30.5 µM; GI50 (A549 NSCLC): 1830 nM; TGI (A549 NSCLC): 5.64 µM; GI50 (ACHN renal): 1540 nM; TGI (ACHN renal): 2910 nM; GI50 (BT-549 breast): 2270 nM; TGI (BT-549 breast): 3.93 µM; GI50 (CAKI-1 renal): 1580 nM; TGI (CAKI-1 renal): 3.36 µM; GI50 (CCRF-CEM leukemia): 299 nM; TGI (CCRF-CEM leukemia): > 100 µM; GI50 (COLO 205 colon): 2020 nM; TGI (COLO 205 colon): 3.94 µM; GI50 (DU-145 prostate): 2050 nM; TGI (DU-145 prostate): 4.83 µM; GI50 (EKVX NSCLC): 1580 nM; TGI (EKVX NSCLC): 2970 nM; GI50 (HCC-2998 colon): 1540 nM; TGI (HCC-2998 colon): 2870 nM; GI50 (HCT-116 colon): 655 nM; TGI (HCT-116 colon): 2300 nM; GI50 (HCT-15 colon): 893 nM; TGI (HCT-15 colon): 2380 nM; GI50 (HL-60(TB) leukemia): 1750 nM; TGI (HL-60(TB) leukemia): 6.29 µM; GI50 (HOP-62 NSCLC): 2220 nM; TGI (HOP-62 NSCLC): 4.4 µM; GI50 (HOP-92 NSCLC): 1980 nM; TGI (HOP-92 NSCLC): 5.8 µM; GI50 (HS 578T breast): 2680 nM; TGI (HS 578T breast): 9.86 µM; GI50 (HT29 colon): 1260 nM; TGI (HT29 colon): 2770 nM; GI50 (IGROV1 ovarian): 1740 nM; TGI (IGROV1 ovarian): 3.32 µM; GI50 (K-562 leukemia): 788 nM; TGI (K-562 leukemia): > 100 µM; GI50 (KM12 colon): 2070 nM; TGI (KM12 colon): 4.92 µM; GI50 (LOX IMVI melanoma): 573 nM; TGI (LOX IMVI melanoma): 1780 nM; GI50 (M14 melanoma): 1920 nM; TGI (M14 melanoma): 4.85 µM; GI50 (MALME-3M melanoma): 1810 nM; TGI (MALME-3M melanoma): 3.33 µM; GI50 (MCF7 breast): 439 nM; TGI (MCF7 breast): 1680 nM; GI50 (MDA-MB-231 breast): 1570 nM; TGI (MDA-MB-231 breast): 3.11 µM; GI50 (MDA-MB-435): 1350 nM; TGI (MDA-MB-435): 2970 nM; GI50 (MDA-MB-468 breast): 1540 nM; TGI (MDA-MB-468 breast): 2910 nM; GI50 (MOLT-4 leukemia): 1790 nM; TGI (MOLT-4 leukemia): 9.16 µM; GI50 (NCI-H226 lung): 2140 nM; TGI (NCI-H226 lung): 4.59 µM; GI50 (NCI-H23 lung): 1550 nM; TGI (NCI-H23 lung): 3.01 µM; GI50 (NCI-H460 lung): 1560 nM; TGI (NCI-H460 lung): 3.28 µM; GI50 (NCI-H522 lung): 1560 nM; TGI (NCI-H522 lung): 3.24 µM; GI50 (NCI/ADR-RES ovarian): 1510 nM; TGI (NCI/ADR-RES ovarian): 3.72 µM; GI50 (OVCAR-3 ovarian): 1560 nM; TGI (OVCAR-3 ovarian): 3.31 µM; GI50 (OVCAR-4 ovarian): 1850 nM; TGI (OVCAR-4 ovarian): 4.44 µM; GI50 (OVCAR-5 ovarian): 1840 nM; TGI (OVCAR-5 ovarian): 3.36 µM; GI50 (OVCAR-8 ovarian): 1490 nM; TGI (OVCAR-8 ovarian): 3.87 µM; GI50 (PC-3 prostate): 2190 nM; TGI (PC-3 prostate): 5.99 µM; GI50 (RPMI-8226 leukemia): 558 nM; TGI (RPMI-8226 leukemia): > 100 µM; GI50 (RXF 393 renal): 1760 nM; TGI (RXF 393 renal): 3.34 µM; GI50 (SF-268 CNS): 2380 nM; TGI (SF-268 CNS): 7.48 µM; GI50 (SF-295 CNS): 1700 nM; TGI (SF-295 CNS): 3.1 µM; GI50 (SF-539 CNS): 1680 nM; TGI (SF-539 CNS): 3.07 µM; GI50 (SK-MEL-2 melanoma): 1740 nM; TGI (SK-MEL-2 melanoma): 3.25 µM; GI50 (SK-MEL-28 melanoma): 1670 nM; TGI (SK-MEL-28 melanoma): 3.07 µM; GI50 (SK-MEL-5 melanoma): 1730 nM; TGI (SK-MEL-5 melanoma): 3.15 µM; GI50 (SK-OV-3 ovarian): 3.65 µM; TGI (SK-OV-3 ovarian): 16.3 µM; GI50 (SN12C renal): 1470 nM; TGI (SN12C renal): 2860 nM; GI50 (SNB-19 CNS): 1600 nM; TGI (SNB-19 CNS): 2980 nM; GI50 (SNB-75 CNS): 1380 nM; TGI (SNB-75 CNS): 3.33 µM; GI50 (SR leukemia): 498 nM; TGI (SR leukemia): > 100 µM; GI50 (SW-620 colon): 1030 nM; TGI (SW-620 colon): 2440 nM; GI50 (T-47D breast): 1690 nM; TGI (T-47D breast): 3.55 µM; GI50 (TK-10 renal): 2050 nM; TGI (TK-10 renal): 3.86 µM; GI50 (U251 CNS): 1290 nM; TGI (U251 CNS): 2620 nM; GI50 (UACC-257 melanoma): 1510 nM; TGI (UACC-257 melanoma): 3.18 µM; GI50 (UACC-62 melanoma): 1510 nM; TGI (UACC-62 melanoma): 3 µM; GI50 (UO-31 renal): 1450 nM; TGI (UO-31 renal): 2760 nM
